Data reported in patent US8883789B2, “Piperazine derivatives and their use as positive allosteric modulators of mGluR5 receptors” (Boehringer Ingelheim International GmbH, priority 2011, dated 2014).

Each compound was assayed against T1, human recombinant mGluR5 (Homo sapiens, UniProt P41594) (assay: positive modulation of mGluR5, calcium based FLIPR assay). Details: HEK 293 cell line expressing human recombinant mGluR5; Ca2+ peak height after glutamate at approximately 5% basal stimulation; nonlinear regression.
T1 construct: expressed in transfected cells; hygromycin and geneticin selection
Protocol: The positive modulation of mGluR5 is measured in a HEK 293 cell line expressing human recombinant mGluR5 and is detected with calcium based FLIPR assay. The cells are cultured with DMEM supplemented with 10% FCS, 2 μg/mL tetracycline, 100 μg/mL hygromycin and 500 μg/mL geneticin. The cell culture media is exchanged for tetracycline-free cell culture media 3-7 days before the assay. One day before the assay the cell culture medium is exchanged to DMEM without glutamine and phenol red and supplemented with 10% FCS, 100 μg/mL hygromycin and 500 μg/mL geneticin. On the assay day, the medium of the subconfluent cultures is removed and the cells are detached by addition of 2.5 ml EDTA (0.02%) per 175 cm2 culture flask for 1 minute. The cells are resuspend in Ringer solution (140 mM NaCl, 5 mM KCl, 2.5 mM CaCl2, 1.5 mM MgCl2, 5 mM Glucose, 10 mM Hepes; adjusted to pH 7.4 with NaOH), pooled and Ringer solution added to adjust the volume to 50 mL. The cell suspension is centrifuged for […] at 1500 U/min (425 g). The supernatant is removed and the cells washed a second time with 50 ml fresh Ringer solution and centrifuged again as before. The supernatant is again removed and the pellet resuspended in Ringer solution to 1,000,000 cells/ml (1×10^6 cells/mL). The cells are plated onto BD BioCoat Poly-D-Lysine 384 well plates (20.000 cells/well; 20 μl/well). The lid covered plates are then incubated until use at 37° C./10% CO2. For dye loading, 20 μl of Calcium-4 assay kit solution (prepared according to the manufacturer's description in Ringer solution) are added to the cells and the plates are incubated for 80 min 37° C. and then 10 min at room temperature.
Controls, Compound Dilution and Assay Execution:
Each assay plate contained wells with “high” and “low” controls:
Low controls 1% DMSO/ringer solution+basal glutamate activation (defined as 100% CTL).
High controls 10 μM CDPPB+basal glutamate activation (defined as 200% CTL).
Test compounds are dissolved and diluted in DMSO to 100-fold the desired concentrations. In a second step, the compounds are diluted in Ringer solution such that the compounds are 4-fold more concentrated than the desired final assay concentration. The final DMSO concentration was 1%.
20 μl of each compound solution are then transferred to the assay plate and the Ca2+ kinetic is measured to determine any intrinsic compound activity. After 5 min incubation in the FLIPR device, the second stimulation with 20 μl of glutamate in Ringer solution (glutamate concentration adjusted to approximately 5% basal stimulation of the maximal possible glutamate effect) is added and the kinetic Ca2+ response of the wells was measured for the modulation effect.
The peak height of the Ca release related fluorescence signal (9-66) is used for the EC50.
The EC50 of the modulation is calculated over a nonlinear regression with GraphPad Prism (Table 1).

T1 sequence (P41594 21-1212): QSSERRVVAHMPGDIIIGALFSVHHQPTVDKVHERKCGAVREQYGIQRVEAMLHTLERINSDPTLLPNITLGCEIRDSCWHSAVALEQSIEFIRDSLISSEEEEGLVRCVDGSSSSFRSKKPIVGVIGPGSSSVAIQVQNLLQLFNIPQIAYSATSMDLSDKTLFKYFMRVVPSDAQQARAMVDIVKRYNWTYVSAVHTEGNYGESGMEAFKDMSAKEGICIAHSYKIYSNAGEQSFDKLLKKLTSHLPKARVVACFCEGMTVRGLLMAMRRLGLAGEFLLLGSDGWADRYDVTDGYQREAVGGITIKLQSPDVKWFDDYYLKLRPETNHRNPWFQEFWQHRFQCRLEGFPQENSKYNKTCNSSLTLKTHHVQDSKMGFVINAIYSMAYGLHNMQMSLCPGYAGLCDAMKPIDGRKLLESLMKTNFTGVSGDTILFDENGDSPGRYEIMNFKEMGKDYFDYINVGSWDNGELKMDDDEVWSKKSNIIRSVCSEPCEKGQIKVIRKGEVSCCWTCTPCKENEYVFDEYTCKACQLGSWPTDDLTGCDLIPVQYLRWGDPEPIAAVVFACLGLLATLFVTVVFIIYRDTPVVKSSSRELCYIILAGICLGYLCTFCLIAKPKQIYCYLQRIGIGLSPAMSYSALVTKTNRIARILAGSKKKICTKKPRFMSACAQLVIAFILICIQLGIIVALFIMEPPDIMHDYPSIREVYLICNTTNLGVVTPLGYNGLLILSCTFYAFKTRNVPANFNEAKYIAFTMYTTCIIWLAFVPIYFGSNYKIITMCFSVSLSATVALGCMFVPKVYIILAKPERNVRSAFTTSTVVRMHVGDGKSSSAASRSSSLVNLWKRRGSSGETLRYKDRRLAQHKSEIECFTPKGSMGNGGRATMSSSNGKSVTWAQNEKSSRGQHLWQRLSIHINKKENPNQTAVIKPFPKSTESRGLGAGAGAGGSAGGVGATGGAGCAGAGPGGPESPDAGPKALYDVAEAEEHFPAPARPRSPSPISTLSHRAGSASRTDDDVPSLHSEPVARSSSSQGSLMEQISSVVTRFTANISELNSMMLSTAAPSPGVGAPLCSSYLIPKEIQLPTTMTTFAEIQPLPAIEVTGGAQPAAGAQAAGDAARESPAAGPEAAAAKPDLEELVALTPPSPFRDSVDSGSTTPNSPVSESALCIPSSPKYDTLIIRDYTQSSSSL

`COc1cccc(C(=O)N2CCN(C(=O)c3ncn(-c4cccc(Cl)c4)n3)C[C@H]2C)n1` [Example 248, (R)-{4-[1-(3-Chloro-phenyl)-1H-[1,2,4]triazole-3-carbonyl]-2-methyl-piperazin-1-yl}-(6-methoxy-pyridin-2-yl)-methanone] and `COc1cccc(C(=O)N2CCN(C(=O)c3ncn(-c4cccc(Cl)c4)n3)[C@@H](C)C2)n1` [Example 300, (S)-{4-[1-(3-Chloro-phenyl)-1H-[1,2,4]triazole-3-carbonyl]-3-methyl-piperazin-1-yl}-(6-methoxy-pyridin-2-yl)-methanone] are within 1.5-fold of each other in EC50: 169 nM for the first, 154 nM for the second.

`COc1ccc(C(=O)N2CCN(C(=O)c3ncn(-c4cccc(Cl)c4)n3)C(C)(C)C2)nc1OC` [Example 79] and `COc1ccc2c(OC)nc(C(=O)N3CCN(C(=O)c4ncn(-c5cccc(Cl)c5)n4)C(C)(C)C3)cc2c1` [Example 31] are within 1.5-fold of each other in EC50: 230 nM for the first, 160 nM for the second.

`CC1(C)CN(C(=O)c2cc3ccccc3c(OCC3CC3)n2)CCN1C(=O)c1ncn(-c2cccc(Cl)c2)n1` [Example 85] and `CCCOc1nc(C(=O)N2CCN(C(=O)c3ncn(-c4cccc(Cl)c4)n3)C(C)(C)C2)cc2ccccc12` [Example 87] are within 1.5-fold of each other in EC50: 109 nM for the first, 105 nM for the second.

`CC1(C)CN(C(=O)c2cccc(-c3ccncc3)c2)CCN1C(=O)c1ncn(-c2cccc(Cl)c2)n1` [Example 30] and `CC1(C)CN(C(=O)c2cccc(-c3ccncc3)n2)CCN1C(=O)c1ncn(-c2cccc(Cl)c2)n1` [Example 86] are within 1.5-fold of each other in EC50: 115 nM for the first, 164 nM for the second.

Compared with `CC1(C)CN(C(=O)c2cccc(-c3cnco3)c2)CCN1C(=O)c1ncn(-c2ccccc2)n1` [Example 127], `CC1(C)CN(C(=O)c2ccccc2)CCN1C(=O)c1ncn(-c2ccccc2)n1` [Example 112] is 2.6-fold higher in EC50: 296 nM for the first, 770 nM for the second. The first is the more potent here.

First: CCc1ccc(C(=O)N2CCN(C(=O)c3ncn(-c4cccc(Cl)c4)n3)C(C)(C)C2)s1 [Example 83]
Second: CC(C)c1cccc(C(=O)N2CCN(C(=O)c3ncn(-c4cccc(Cl)c4)n3)C(C)(C)C2)c1 [Example 11, [1-(3-Chloro-phenyl)-1H-[1,2,4]-triazol-3-yl]-[4-(3-isopropyl-benzoyl)-2,2-dimethyl-piperazin-1-yl]methanone]
The EC50 of the first is 3.4-fold higher: 64 nM for the first, 19 nM for the second. The second is the more potent here.

First: Cc1c(C(=O)N2CCN(C(=O)c3ncn(-c4cccc(Cl)c4)n3)C(C)(C)C2)oc2ccc(F)cc12 [Example 41]
Second: Cc1oc2ccc(F)cc2c1C(=O)N1CCN(C(=O)c2ncn(-c3ccccc3)n2)C(C)(C)C1 [Example 102]
The EC50 of the first is 4.1-fold higher: 200 nM for the first, 49 nM for the second.

First: Cc1ccc(Cl)cc1C(=O)N1CCN(C(=O)c2ncn(-c3ccccc3)n2)C(C)(C)C1 [Example 154]
Second: COc1ccc(C(=O)N2CCN(C(=O)c3ncn(-c4ccccc4)n3)C(C)(C)C2)s1 [Example 119]
The EC50 of the first is 4.4-fold lower: 157 nM for the first, 695 nM for the second.

Going from `COc1ccc2c(C)c(C(=O)N3CCN(C(=O)c4ncn(-c5cccc(Cl)c5)n4)C(C)C3)oc2c1` (stereo not drawn) [Example 278] to `COc1cc(C(=O)N2CCN(C(=O)c3ncn(-c4cccc(C)c4)n3)C(C)C2)ccc1C` (stereo not drawn) [Example 288], the EC50 falls from 929 nM to 372 nM (2.5-fold). The second is the more potent here.

`Cc1cccc(-n2nnc(C(=O)N3CCN(C(=O)c4cccc(Cl)c4)CC3(C)C)n2)c1` [Example 189] and `CC1(C)CN(C(=O)c2cccc(C3CC3)n2)CCN1C(=O)c1nnn(-c2cccc(F)c2)n1` [Example 185] are the same in EC50: 36 nM for the first, 36 nM for the second.

First: CC1(C)CN(C(=O)c2cccc(C(F)(F)F)c2)CCN1C(=O)c1ncn(-c2cccc(Cl)c2)n1 [Example 14]
Second: CC1(C)CN(C(=O)c2cc(Cl)cc(C(F)(F)F)c2)CCN1C(=O)c1ncn(-c2cccc(Cl)c2)n1 [Example 29]
The EC50 of the first is 4.4-fold lower: 25 nM for the first, 109 nM for the second. The first is the more potent here.

Compared with `CC1(C)CN(C(=O)c2cc(Cl)c3c(c2)OCCO3)CCN1C(=O)c1ncn(-c2ccccc2)n1` [Example 104], `CC1(C)CN(C(=O)c2cc(Cl)c3c(c2)OCCO3)CCN1C(=O)c1ncn(-c2cccc(F)c2)n1` [Example 3] is 1.7-fold higher in EC50: 50 nM for the first, 86 nM for the second. The first is the more potent here.

First: COc1nc(C(=O)N2CCN(C(=O)c3ncn(-c4ccccc4)n3)C(C)(C)C2)cc2ccccc12 [Example 97]
Second: COc1nc(C(=O)N2CCN(C(=O)c3ncn(-c4ccc(C)c(F)c4)n3)C(C)(C)C2)cc2ccccc12 [Example 158]
The EC50 of the first is 18-fold lower: 25 nM for the first, 441 nM for the second.

`CCC[C@H]1CN(C(=O)c2ncn(-c3cccc(F)c3)n2)CCN1C(=O)c1cc(Br)c(Br)o1` [Example 262] and `CCC1CN(C(=O)c2ncn(-c3cccc(F)c3)n2)CCN1C(=O)c1cc(Br)c(Br)o1` (stereo not drawn) [Example 260] are within 1.5-fold of each other in EC50: 193 nM for the first, 153 nM for the second.

Compared with `CC1(C)CN(C(=O)c2csc(C3CC3)n2)CCN1C(=O)c1ncn(-c2ccccc2)n1` [Example 141], `CC1(C)CN(C(=O)c2cccc(C3CC3)c2)CCN1C(=O)c1ncn(-c2ccccc2)n1` [Example 136] is 9.4-fold lower in EC50: 487 nM for the first, 52 nM for the second.

`COc1cccc(C(=O)N2CCN(C(=O)c3ncn(-c4cc(F)ccc4F)n3)C(C)(C)C2)n1` [Example 197, [1-(2,5-Difluoro-phenyl)-1H-[1,2,4]triazol-3-yl]-[4-(6-methoxy-pyridine-2-carbonyl)-2,2-dimethyl-piperazin-1-yl]-methanone] and `COc1cccc(C(=O)N2CCN(C(=O)c3ncn(-c4cccc(F)c4)n3)C(C)(C)C2)n1` [Example 4] are within 1.5-fold of each other in EC50: 149 nM for the first, 101 nM for the second.

First: O=C(c1cccc(Cl)c1)N1CCN(C(=O)c2ncn(-c3cccc(Cl)c3)n2)C2(CCCC2)C1 [Example 308]
Second: C#CCOc1cccc(C(=O)N2CCN(C(=O)c3ncn(-c4cccc(Cl)c4)n3)C(C)(C)C2)c1 [Example 72]
The EC50 of the first is 5.7-fold higher: 367 nM for the first, 64 nM for the second. The second is the more potent here.

`CC1(C)CN(C(=O)c2cccc(C(F)(F)F)n2)CCN1C(=O)c1nnn(-c2ccccc2)n1` [Example 168] and `CC1(C)CN(C(=O)c2cccc(C(F)(F)F)n2)CCN1C(=O)c1ncn(-c2cccc(Cl)c2)n1` [Example 13] are within 1.5-fold of each other in EC50: 15 nM for the first, 22 nM for the second.

First: Cc1cc2cc(C(=O)N3CCN(C(=O)c4ncn(-c5cccc(Cl)c5)n4)C(C)(C)C3)ccc2[nH]1 [Example 80]
Second: CC1(C)CN(C(=O)c2cnc3[nH]ccc3c2)CCN1C(=O)c1ncn(-c2cccc(Cl)c2)n1 [Example 59]
The EC50 of the first is 7.8-fold lower: 139 nM for the first, 1080 nM for the second. The first is the more potent here.

Compared with `Cn1nccc1-c1cccc(C(=O)N2CCN(C(=O)c3ncn(-c4cccc(Cl)c4)n3)C(C)(C)C2)n1` [Example 91], `COc1cccc(C(=O)N2CCN(C(=O)c3ncn(-c4ccc(C)c(F)c4)n3)C(C)(C)C2)n1` [Example 159] is 6.1-fold higher in EC50: 113 nM for the first, 693 nM for the second. The first is the more potent here.

`CC1(C)CN(C(=O)c2cc(Cl)cc(C(F)(F)F)c2)CCN1C(=O)c1ncn(-c2ccccc2)n1` [Example 145] and `Cc1oc2ccccc2c1C(=O)N1CCN(C(=O)c2ncn(-c3ccccc3)n2)C(C)(C)C1` [Example 106] are within 1.5-fold of each other in EC50: 120 nM for the first, 89 nM for the second.

First: CC1CN(C(=O)c2cc3c(Cl)cccc3s2)CCN1C(=O)c1ncn(-c2cccc(Cl)c2)n1 (stereo not drawn) [Example 268]
Second: CC1CN(C(=O)c2ncn(-c3cccc(Cl)c3)n2)CCN1C(=O)c1cccc2c1OCO2 (stereo not drawn) [Example 220]
The EC50 of the first is 2.4-fold lower: 327 nM for the first, 799 nM for the second.

`C[C@H]1CN(C(=O)c2ncn(-c3cccc(Cl)c3)n2)CCN1C(=O)c1cc(Br)c(Br)o1` [Example 254] and `CC1(C)CN(C(=O)c2cccc(COc3ccccc3)c2)CCN1C(=O)c1ncn(-c2cccc(Cl)c2)n1` [Example 74] are within 1.5-fold of each other in EC50: 157 nM for the first, 170 nM for the second.

`CC1(C)CN(C(=O)c2noc(-c3ccccc3)n2)CCN1C(=O)c1ncn(-c2ccccc2)n1` [Example 139] and `COc1cccc(C(=O)N2C[C@@H](C)N(C(=O)c3ncn(-c4cccc(F)c4)n3)[C@@H](C)C2)n1` [Example 303] are within 1.5-fold of each other in EC50: 314 nM for the first, 215 nM for the second.
